Here are results for one molecule from US20210038564A1, “METHODS FOR SCAR PREVENTION” (Northwestern University, priority 2009, published 2021).

In the assay the test system is hypertrophic scar formation. As to the kind of experiment: Hypertrophic scar model in rabbit ear, 7-mm wounds, scar elevation index. It is filed as in vivo, rabbit (New Zealand White). An excerpt:
Using a well-established hypertrophic scar model in rabbit ear (Brown et al. (2008) Plast. Reconstr. Surg. 121:1165-1172; Kim et al. (2003) Wound Repair Regen. 11:368-372; Kryger et al. (2007) J Am. Coll. Surg. 205:78-88; Lu et al. (2005) J Am. Coll. Surg. 201:391-397; Morris et al. (2007) Plast. Reconstr. Surg. 100:674-681; Reid et al. (2006) Wound Repair Regen. 14:138-141; Reid et al. (2007) J Plast. Reconstr. Aesthet. Surg. 60:64-72; Saulis et al. (2002) Plast. Reconstr. Surg. 110:177-183; each herein incorporated by reference in its entirety), the effects of local administration of statins (e.g., Simvastatin, Lovastatin, Prevastatin) were investigated in experiments conducted during the course of developing some embodiments of the present technology. […] The effectiveness of statin administration on inhibition of hypertrophic scar formation was assessed by histological determination of scar elevation index (FIG. 1). The scar elevation index is determined by the ratio of total wound area tissue height to the area of normal tissue below the hypertrophic scar. […]
Whereas the dosages in terms of μMol were equivalent for all 3 statins, the μg dosage levels for Lovastatin and Prevastatin were double those used for Simvastatin. Scar Elevation Index was determined for 28 rabbits, as indicated: […]

`CC[C@H](C)C(=O)O[C@H]1C[C@@H](C)C=C2C=C[C@H](C)[C@H](CC[C@@H]3C[C@@H](O)CC(=O)O3)[C@H]21` [Lovastatin]: the hypertrophic scar formation result (40 μM per wound, local injection) was “inhibit hypertrophic scar formation”. In addition, the “scar elevation index (SEI)” value (lowest level of drug administered (40 μM per wound), injections on days 15, 20, 25, harvest on day 35, versus vehicle) was “significantly lower SEI”.
